The results in this text go back to publication PMC3005002 (Glia, 2011).

Structures are written as SMILES.

This assay addresses T1, NCC69 (HA:NCC69) (Drosophila melanogaster, UniProt Q9VTW8).
T1 sequence (Q9VTW8 1-1171): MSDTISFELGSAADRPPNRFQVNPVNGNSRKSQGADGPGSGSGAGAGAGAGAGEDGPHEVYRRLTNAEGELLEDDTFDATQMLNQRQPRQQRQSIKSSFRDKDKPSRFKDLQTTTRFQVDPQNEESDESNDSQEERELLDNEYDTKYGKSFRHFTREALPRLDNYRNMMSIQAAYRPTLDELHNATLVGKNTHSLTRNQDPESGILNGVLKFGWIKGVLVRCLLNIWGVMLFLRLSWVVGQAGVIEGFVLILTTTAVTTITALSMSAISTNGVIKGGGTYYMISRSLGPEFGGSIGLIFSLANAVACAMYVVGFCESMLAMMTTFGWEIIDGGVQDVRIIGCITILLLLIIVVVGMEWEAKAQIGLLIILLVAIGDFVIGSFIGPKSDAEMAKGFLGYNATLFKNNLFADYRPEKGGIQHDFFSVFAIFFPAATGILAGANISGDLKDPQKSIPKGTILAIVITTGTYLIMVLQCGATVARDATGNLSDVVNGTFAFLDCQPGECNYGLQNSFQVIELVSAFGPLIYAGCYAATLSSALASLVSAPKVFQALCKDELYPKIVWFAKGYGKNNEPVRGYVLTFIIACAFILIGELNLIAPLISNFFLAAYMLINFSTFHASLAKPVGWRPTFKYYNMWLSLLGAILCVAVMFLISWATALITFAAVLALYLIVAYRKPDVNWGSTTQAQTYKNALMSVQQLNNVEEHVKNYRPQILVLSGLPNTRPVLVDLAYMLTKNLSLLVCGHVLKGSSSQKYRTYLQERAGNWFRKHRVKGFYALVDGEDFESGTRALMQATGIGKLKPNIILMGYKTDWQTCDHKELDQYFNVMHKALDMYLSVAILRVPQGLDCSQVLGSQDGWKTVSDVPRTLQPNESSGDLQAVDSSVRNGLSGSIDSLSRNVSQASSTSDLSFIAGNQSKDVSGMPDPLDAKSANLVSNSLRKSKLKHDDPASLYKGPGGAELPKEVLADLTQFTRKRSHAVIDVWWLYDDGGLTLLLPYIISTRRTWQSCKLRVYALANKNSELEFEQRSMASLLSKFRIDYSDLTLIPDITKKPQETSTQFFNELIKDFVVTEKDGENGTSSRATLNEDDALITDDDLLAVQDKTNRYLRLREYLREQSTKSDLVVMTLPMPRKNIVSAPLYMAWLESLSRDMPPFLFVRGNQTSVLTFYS
Description: […] influx inhibition in stably transfected SL2 cells. It is filed as cell-based.

Turning to `CCCCNc1cc(C(=O)O)cc(S(N)(=O)=O)c1Oc1ccccc1` [bumetanide], the affinity corresponds to a Ki of 49 nM.
